From patent publication US20070275932A1, “Aryl, heteroaromatic and bicyclic aryl nitrone compounds, prodrugs and pharmaceutical compositions of the same to treat human disorders” (Renovis, Inc., priority 2003, published 2007)
Counter-ions that a name gives are not always drawn.

Assay: Free radical-scavenging/antioxidant assay (DPPH)
Format: biochemical
Settings: 50 μM DPPH in 80% methanol, absorbance at 520 nm, 24 h time point (steady state); read-out: EC50 (concentration at which a compound reduces by 50% the peak absorbance of DPPH at 520 nm)
Protocol: Nitrone compounds of the present invention were tested for their free-radical scavenging/antioxidant activity in an in vitro assay that is accepted by those skilled in the art as a model for conditions involving the generation of free radicals. The assay is based on a reaction between a free-radical donor, 2,2-diphenyl-1-picrylhydrazyl (DPPH), and a radical scavenger/antioxidant to be tested for free-radical scavenging activity. Upon donation of the free-radical electron to the purported radical scavenger, the peak visible absorbance of DPPH (515-520 nm) decreases so that optical density readings at this part of the visual spectrum reflect the progression of the following reaction: DPPH∩+AH→DPPH-H+A∩ where AH is a hypothetical radical scavenger/antioxidant. The assay is based on a protocol originally detailed in Brand-Williams, W. et al., 1995, Use of a Free Radical Method to Evaluate Antioxidant Activity, Lebensm. Wiss. Technol., 28:25-30, with further modifications described in L. R. Fukumoto and G. Mazza, 2000, Assessing Antioxidant and Prooxidant Activities of Phenolic Compounds, J. Agric. Food Chem., 48:3597-3604.
The antioxidant assay was performed using Perkin-Elmer 96-well, clear-bottom, black-wall plates (ordered from E & K Scientific Products) and a Tecan Safire absorbance plate reader. The positive controls were Trolox (6-hydroxy-2,5,7,8-tetramethylchromane-2-carboxylic acid, Sigma-Aldrich), BHA (2(3)-tert-butylhydroquinone monomethyl ether, Sigma-Aldrich), PBN (C-(phenyl)-N-(tert-butyl)nitrone, Sigma-Aldrich) and S-PBN (C-(2-sulfophenyl)-N-(tert-butyl)nitrone, sodium salt, prepared according to E. G. Janzen and R. V. Shetty, 1979, Tetrahedron Lett., 35: 3229-32), and the negative control (i.e., vehicle) was DMSO. In brief, 2 μL of 100×DMSO stock of the desired final concentration of each control or nitrone compound to be tested in the same batch was added to a separate well. To each well was then added 198 μL of a freshly made 50 μM DPPH (Sigma-Aldrich) solution in 80% methanol using a multi-channel pipette. The absorbance was immediately read on the plate reader at 520 nm and thereafter read periodically to assess kinetics until all reactions reached completion (i.e., steady state). Since the steady-state point was 24 h, the assay results are shown from the 24 h time point. The absorbance at 520 nm (OD) was plotted versus the concentrations of the controls and nitrone compounds to assess dose-response and interpolate the EC50 values of the controls and test compounds.
An EC50 of 100 to 500 µM was found for COC(=O)c1c(/C=[N+](\[O-])C2CCCCC2)cc(OC)cc1OC [Example 5, N-Cyclohexyl-C-[2-(methoxycarbonyl)-3,5-dimethoxyphenyl]nitrone] in this work. An EC50 of 100 to 500 µM was found for COC(=O)c1c(/C=[N+](\[O-])C(C)(C)C)cc(OC)cc1OC [Example 4, N-(tert-Butyl)-C-[2-(methoxycarbonyl)-3,5-dimethoxyphenyl]nitrone] in this work. With CC(C)(C)[N+]([O-])=Cc1ccccc1S(=O)(=O)O [S-PBN, C-(2-sulfophenyl)-N-(tert-butyl)nitrone, sodium salt, reference compound] the EC50 was > 1000 µM. An EC50 of 10 to 100 µM was found for O=C(O)c1ccccc1/C=[N+](\[O-])C1CCCCC1 [Example 8, N-Cyclohexyl-C-(2-carboxyphenyl)nitrone] in this work. An EC50 of 100 to 500 µM was found for CC(C)(C)/[N+]([O-])=C/c1ccccc1N1CCOCC1 [Example 20, N-(tert-Butyl)-C-[2-(1-morpholino)phenyl]nitrone] in this work. In the case of [O-]/[N+](=C\c1ccccc1Sc1ccc(Cl)cc1)C1CCCCC1 [Example 27, N-Cyclohexyl-C-[2-(4-chlorophenylthio)phenyl]nitrone], the EC50 is reported as > 1000 µM.
